Measurements as given in patent US5552421A, “Leukotriene biosynthesis inhibitors” (Boehringer Ingelheim Pharmaceuticals, Inc., priority 1995, dated 1996).

test system: LTB4 biosynthesis in human polymorphonuclear leukocytes (PMNs); assay: Inhibition of LTB4 biosynthesis in human polymorphonuclear leukocytes (PMNs); assay type: cell-based; details: Homo sapiens, Leukocyte, Table 1A, Esters; LTB4, A23187-stimulated human PMNs
Protocol: Inhibition of LTB4, biosynthesis in human polymorphonuclear leukocytes (PMNs)
The inhibition of leukotriene biosynthesis is measured by determining whether and to what extent test compounds can inhibit LTB4 production from endogenous arachidonic acid in human peripheral blood leukocytes.
To 48-well tissue culture plates was added a solution of the test compound followed by addition of human polymorphonuclear leukocytes isolated from peripheral blood at a density of 1.5×10^6 cells/well. Culture plates were preincubated for fifteen minutes with shaking at 28° C. Cells were stimulated with calcium ionophore A23187 at a final concentration of 2.5 μM for an additional ten minutes. The reaction was terminated by the addition of an EGTA solution (10 mM final concentration)followed by centrifugation at 1500 rpm at 10° C. Supernatants were stored at -70° C. LTB4 levels were determined by RIA using a commercially available kit. Nonlinear regression analysis was used to calculate. IC50 values.
The following tables show % inhibition of LTB4 biosynthesis by compounds of the invention at test concentrations indicated, with the determined IC50 shown in μM.

| Compound | IC50 [µM] |
| --- | --- |
| CCOC(=O)C(Cc1ccccc1)N(C)c1nc2ccccc2s1 (stereo not drawn) [Compound 36] | 1 |
| CCOC(=O)C(CCc1ccccc1)Nc1nc2ccccc2s1 (stereo not drawn) [Compound 37] | 0.52 |
| CCOC(=O)C(C)(Cc1ccccc1)Nc1nc2ccccc2s1 (stereo not drawn) [Compound 38] | 0.2 |
| CCOC(=O)C(C)(Cc1ccccc1)Nc1nc2ccccc2o1 (stereo not drawn) [Compound 39] | 0.076 |

same assay, conditions: Homo sapiens, Leukocyte, Table 2, Amides; values with <: see footnote d, Tables 1 and 1A

| Compound | IC50 [µM] |
| --- | --- |
| NC(=O)[C@H](Cc1ccccc1)Nc1nc2ccccc2s1 [Compound 40] | 3 |
| CN(C)C(=O)C(Cc1ccccc1)Nc1nc2ccccc2s1 (stereo not drawn) [Compound 41] | 3 |
| CCNC(=O)C(Cc1ccccc1)Nc1nc2ccc(C(C)C)cc2s1 (stereo not drawn) [Compound 42] | 3 |
| CON(C)C(=O)[C@H](Cc1ccccc1)Nc1nc2ccccc2o1 [Compound 43] | < 1 |
| CNC(=O)[C@H](CC1CCCCC1)Nc1nc2cc(C)ccc2o1 [Compound 44, L-N-(5-Methylbenzoxazol-2-yl)cyclohexylalanine-N'-methylamide] | 0.072 |
| CON(C)C(=O)[C@H](CC1CCCCC1)Nc1nc2cc(C)ccc2o1 [Compound 45] | 0.03 |
| Cc1ccc2oc(N[C@@H](CC3CCCCC3)C(=O)N3CCCCC3)nc2c1 [Compound 46] | 0.19 |

same assay, conditions: Homo sapiens, Leukocyte, Table 3, Phenyl; values with <: see footnote d, Table 1

| Compound | IC50 [µM] |
| --- | --- |
| c1ccc(CC(Nc2nc3ccccc3s2)c2ccccc2)cc1 (stereo not drawn) [Compound 47] | 0.16 |
| c1ccc(CC(Nc2nc3ccccc3o2)c2ccccc2)cc1 (stereo not drawn) [Compound 50] | < 1 |
| CC(C)c1ccc2oc(NC(CC3CCCCC3)c3ccccc3)nc2c1 (stereo not drawn) [Compound 54] | 0.0063 |
| Clc1ccc(C(CC2CCCCC2)Nc2nc3ccccc3o2)cc1 (stereo not drawn) [Compound 55] | 0.3 |
| Cc1cccc(C(CC2CCCCC2)Nc2nc3ccccc3o2)c1 (stereo not drawn) [Compound 57] | 0.3 |
| Clc1ccccc1C(CC1CCCCC1)Nc1nc2ccccc2o1 (stereo not drawn) [Compound 58] | 0.08 |
| Ic1ccc2oc(NC(CC3CCCCC3)c3ccccc3)nc2c1 (stereo not drawn) [Compound 59] | 0.013 |
| CS(=O)(=O)Nc1ccc2oc(NC(CC3CCCCC3)c3ccccc3)nc2c1 (stereo not drawn) [Compound 60] | 0.16 |
| CC(=O)Nc1ccc2oc(NC(CC3CCCCC3)c3ccccc3)nc2c1 (stereo not drawn) [Compound 61] | 0.076 |
| CNC(=O)Nc1ccc2oc(NC(CC3CCCCC3)c3ccccc3)nc2c1 (stereo not drawn) [Compound 62] | < 1 |
| O=C(O)c1ccc2oc(NC(CC3CCCCC3)c3ccccc3)nc2c1 (stereo not drawn) [Compound 63] | 0.19 |
| NC(=O)c1ccc2oc(NC(CC3CCCCC3)c3ccccc3)nc2c1 (stereo not drawn) [Compound 64] | < 1 |
| CN(C)C(=O)c1ccc2oc(NC(CC3CCCCC3)c3ccccc3)nc2c1 (stereo not drawn) [Compound 65] | 0.17 |

same assay, conditions: Leukocyte; Table 1, Esters; LTB4, A23187-stimulated human PMNs; values with < (footnote d): greater than 50% (504 [sic]) inhibition at this concentration, IC50 not characterized further

| Compound | IC50 [µM] |
| --- | --- |
| CCOC(=O)C(Cc1ccccc1)Nc1nc2ccccc2s1 (racemic) [Compound 4, DL-N-(Benzothiazol-2-yl)phenylalanine ethyl ester] | 0.4 |
| CCOC(=O)C(Cc1ccc(Cl)cc1)Nc1nc2ccc(C(C)C)cc2s1 (racemic) [Compound 7, DL-N-(6-Isopropylbenzothiazol-2-yl)-4-chlorophenylalanine ethyl ester] | 0.33 |
| CCOC(=O)C(Cc1ccc(Cl)cc1)Nc1nc2ccccc2s1 (stereo not drawn) [Compound 1] | 0.2 |
| CCOC(=O)C(Cc1ccc(F)cc1)Nc1nc2ccccc2s1 (stereo not drawn) [Compound 2] | 0.33 |
| CCOC(=O)C(Cc1ccc(Br)cc1)Nc1nc2ccccc2s1 (stereo not drawn) [Compound 3] | 0.15 |
| CCOC(=O)[C@H](Cc1ccccc1)Nc1nc2ccc(C(C)C)cc2s1 [Compound 6] | 0.25 |
| COC(=O)[C@H](Cc1ccccc1)Nc1nc2ccc(C(C)C)cc2s1 [Compound 8] | 0.14 |
| CCOC(=O)C(Cc1ccc(Cl)cc1)Nc1nc2ccc(OC)cc2s1 (stereo not drawn) [Compound 9] | 0.23 |
| COC(=O)[C@@H](Cc1ccccc1)Nc1nc2ccc(C(C)C)cc2s1 [Compound 10] | 0.65 |
| CCCCc1ccc2nc(NC(Cc3ccc(Cl)cc3)C(=O)OCC)sc2c1 (stereo not drawn) [Compound 11] | 0.17 |
| CCOC(=O)[C@H](Cc1ccccc1)Nc1nc2ccc(CC)cc2s1 [Compound 12] | 0.24 |
| CC(C)(C)OC(=O)[C@H](Cc1ccccc1)Nc1nc2ccccc2s1 [Compound 13] | 0.73 |
| CCOC(=O)[C@H](Cc1ccccc1)Nc1nc2cc(CC)ccc2s1 [Compound 14] | 0.009 |
| CCOC(=O)[C@H](CC1CCCCC1)Nc1nc2cc(CC)ccc2s1 [Compound 15] | 0.027 |
| CCOC(=O)[C@H](CC1CCCCC1)Nc1nc2ccccc2s1 [Compound 16] | 0.006 |
| CCOC(=O)[C@H](Cc1ccccc1)Nc1nc2ccccc2o1 [Compound 17] | 0.15 |

| Compound | IC50 [µM] |
| --- | --- |
| CCOC(=O)[C@@H](Cc1ccccc1)Nc1nc2ccccc2o1 [Compound 18] | 1.5 |
| CCOC(=O)[C@H](Cc1ccccc1)Nc1nc2cc(C(C)C)ccc2o1 [Compound 19] | 0.00052 |
| CCOC(=O)[C@H](Cc1ccccc1)Nc1nc2ccc(C(C)C)cc2o1 [Compound 20] | 0.22 |
| COC(=O)[C@H](CC1CCCCC1)Nc1nc2ccccc2o1 [Compound 21] | 0.0064 |
| COC(=O)[C@@H](CC1CCCCC1)Nc1nc2ccccc2o1 [Compound 22] | 0.1 |
| COC(=O)[C@H](CC1CCCCC1)Nc1nc2cc(C(C)C)ccc2o1 [Compound 23] | 0.001 |
| COC(=O)[C@H](CC1CCCCC1)Nc1nc2cc(C)ccc2o1 [Compound 24] | 0.0017 |
| Cc1ccc2oc(N[C@@H](CC3CCCCC3)C(=O)OC(C)(C)C)nc2c1 [Compound 25] | < 0.3 |
| COC(=O)[C@@H](CC1CCCCC1)Nc1nc2cc(C)ccc2o1 [Compound 26] | 0.016 |
| CCOC(=O)C(Cc1csc(C)n1)Nc1nc2cc(OC)ccc2o1 (stereo not drawn) [Compound 27] | < 0.3 |
| CCOC(=O)C(Cc1nccs1)Nc1nc2cc(Cl)ccc2o1 (stereo not drawn) [Compound 28] | < 0.3 |
| CCOC(=O)C(Cc1csc(C)n1)Nc1nc2cc(Cl)ccc2o1 (stereo not drawn) [Compound 29] | 0.087 |
| CCOC(=O)C(Cc1cccnc1)Nc1nc2cc(C(C)C)ccc2o1 (stereo not drawn) [Compound 30] | 0.19 |
| CCOC(=O)C(Cc1ccncc1)Nc1nc2cc(C(C)C)ccc2o1 (stereo not drawn) [Compound 31] | < 0.1 |
| CCOC(=O)C(Cc1csc(C)n1)Nc1nc2cc(C(C)C)ccc2o1 (stereo not drawn) [Compound 33] | < 0.03 |

same assay, conditions: Table 4, Pyridyl; values with <: see footnote d, Table 1

| Compound | IC50 [µM] |
| --- | --- |
| Cc1ccc2oc(NC(CC3CCCCC3)c3ccccn3)nc2c1 (single isomer, unassigned) [Compound 87] | 0.0013 |
| Cc1ccc2oc(NC(CC3CCCCC3)c3ccccn3)nc2c1 (single isomer, unassigned) [Compound 88] | 0.045 |
| Cc1ccc2oc(NC(CC3CCCCC3)c3cccnc3)nc2c1 (single isomer, unassigned) [Compound 89] | 0.016 |
| Cc1ccc2oc(NC(CC3CCCCC3)c3cccnc3)nc2c1 (single isomer, unassigned) [Compound 90] | < 1 |
| Fc1ccc(CC(Nc2nc3cc(Cl)ccc3o2)c2ccccn2)cc1 (single isomer, unassigned) [Compound 118] | 0.01 |
| Fc1ccc(CC(Nc2nc3cc(Cl)ccc3o2)c2ccccn2)cc1 (single isomer, unassigned) [Compound 119] | 0.32 |

same assay, conditions: Table 10, Oxazolopyridines; values with <: see footnote d, Table 1

| Compound | IC50 [µM] |
| --- | --- |
| Cc1ccc2oc(NC(CC3CCCCC3)c3ccccn3)nc2n1 (single isomer, unassigned) [Compound 166] | 0.015 |
| Cc1ccc2oc(NC(CC3CCCCC3)c3ccccn3)nc2n1 (single isomer, unassigned) [Compound 167] | 0.17 |
